# In the NIST ThermoML archive (doi:10.1016/j.jct.2004.09.005):
# Values joined by “and” are separate entries in the source; they are usually repeats but may differ in a detail not shown here. Equal values may be shown once. Numbers after ± are expanded uncertainties.
# What was measured:
# [1] = Molar enthalpy of transition or fusion; conditions: Crystal; DSC
# [2] = Crystal; for vapor or sublimation pressure: Calculated from knudsen effusion weight loss; for Normal melting temperature: DTA
smiles,measurement,setting,value
O=C(O)c1ccccc1Cl [2-chlorobenzoic acid],Molar enthalpy of transition or fusion,[1],6.03 ± 0.136 kcal/mol
same,vapor or sublimation pressure,[2]; 320.16 K,0.000103 ± 5e-06 kPa and 0.000102 ± 5e-06 kPa and 0.0001 ± 5e-06 kPa
same,vapor or sublimation pressure,[2]; 322.16 K,0.000127 ± 6e-06 kPa and 0.000126 ± 6e-06 kPa
same,vapor or sublimation pressure,[2]; 324.14 K,0.000166 ± 8e-06 kPa and 0.000164 ± 8e-06 kPa and 0.000163 ± 8e-06 kPa
same,vapor or sublimation pressure,[2]; 326.14 K,0.000205 ± 1e-05 kPa and 0.000204 ± 1e-05 kPa and 0.000206 ± 1e-05 kPa
same,vapor or sublimation pressure,[2]; 329.15 K,0.0003 ± 1.5e-05 kPa and 0.000294 ± 1.5e-05 kPa
same,vapor or sublimation pressure,[2]; 332.13 K,0.000417 ± 2.1e-05 kPa and 0.000414 ± 2.1e-05 kPa and 0.00041 ± 2.1e-05 kPa
same,vapor or sublimation pressure,[2]; 335.18 K,0.000584 ± 2.9e-05 kPa and 0.000582 ± 2.9e-05 kPa and 0.000576 ± 2.9e-05 kPa
same,vapor or sublimation pressure,[2]; 337.14 K,0.000734 ± 3.7e-05 kPa and 0.000721 ± 3.6e-05 kPa
same,vapor or sublimation pressure,[2]; 339.15 K,0.000934 ± 4.7e-05 kPa and 0.000935 ± 4.7e-05 kPa and 0.00092 ± 4.6e-05 kPa
same,Normal melting temperature,[2],140.80 ± 0.39 °C
O=C(O)c1ccc(Br)cc1 [4-bromobenzoic acid],Molar enthalpy of transition or fusion,[1],7.38 ± 0.163 kcal/mol
same,vapor or sublimation pressure,[2]; 348.67 K,0.000155 ± 8e-06 kPa and 0.000153 ± 8e-06 kPa and 0.000152 ± 8e-06 kPa
same,vapor or sublimation pressure,[2]; 350.14 K,0.000176 ± 9e-06 kPa and 0.00018 ± 9e-06 kPa and 0.000175 ± 9e-06 kPa
same,vapor or sublimation pressure,[2]; 351.67 K,0.000202 ± 1e-05 kPa and 0.000205 ± 1e-05 kPa
same,vapor or sublimation pressure,[2]; 353.14 K,0.000245 ± 1.2e-05 kPa and 0.00024 ± 1.2e-05 kPa
same,vapor or sublimation pressure,[2]; 354.65 K,0.000276 ± 1.4e-05 kPa and 0.000278 ± 1.4e-05 kPa
same,vapor or sublimation pressure,[2]; 356.17 K,0.000331 ± 1.7e-05 kPa and 0.000324 ± 1.6e-05 kPa and 0.000326 ± 1.6e-05 kPa
same,vapor or sublimation pressure,[2]; 357.67 K,0.000384 ± 1.9e-05 kPa and 0.000389 ± 1.9e-05 kPa and 0.000376 ± 1.9e-05 kPa
same,vapor or sublimation pressure,[2]; 359.24 K,0.000448 ± 2.2e-05 kPa and 0.000429 ± 2.1e-05 kPa and 0.000447 ± 2.2e-05 kPa
same,vapor or sublimation pressure,[2]; 360.65 K,0.000517 ± 2.6e-05 kPa and 0.000495 ± 2.5e-05 kPa and 0.000512 ± 2.6e-05 kPa
same,vapor or sublimation pressure,[2]; 362.22 K,0.000609 ± 3e-05 kPa and 0.000617 ± 3.1e-05 kPa and 0.000611 ± 3.1e-05 kPa
same,vapor or sublimation pressure,[2]; 363.63 K,0.000692 ± 3.5e-05 kPa and 0.000703 ± 3.5e-05 kPa and 0.000683 ± 3.4e-05 kPa
same,vapor or sublimation pressure,[2]; 365.23 K,0.00082 ± 4.1e-05 kPa and 0.000809 ± 4e-05 kPa
same,vapor or sublimation pressure,[2]; 366.65 K,0.000932 ± 4.7e-05 kPa and 0.000909 ± 4.5e-05 kPa
same,Normal melting temperature,[2],253.19 ± 0.84 °C
O=C(O)c1ccccc1Br [2-bromobenzoic acid],Molar enthalpy of transition or fusion,[1],5.93 ± 0.203 kcal/mol
same,vapor or sublimation pressure,[2]; 327.56 K,9.4e-05 ± 5e-06 kPa and 9.1e-05 ± 5e-06 kPa
same,vapor or sublimation pressure,[2]; 330.16 K,0.000127 ± 6e-06 kPa and 0.000126 ± 6e-06 kPa and 0.000125 ± 6e-06 kPa
same,vapor or sublimation pressure,[2]; 332.67 K,0.000169 ± 8e-06 kPa and 0.000174 ± 9e-06 kPa and 0.000167 ± 8e-06 kPa
same,vapor or sublimation pressure,[2]; 335.15 K,0.000227 ± 1.1e-05 kPa and 0.000223 ± 1.1e-05 kPa and 0.000224 ± 1.1e-05 kPa
same,vapor or sublimation pressure,[2]; 337.69 K,0.000297 ± 1.5e-05 kPa and 0.000299 ± 1.5e-05 kPa and 0.000296 ± 1.5e-05 kPa
same,vapor or sublimation pressure,[2]; 340.16 K,0.000402 ± 2e-05 kPa and 0.000394 ± 2e-05 kPa and 0.000392 ± 2e-05 kPa
same,vapor or sublimation pressure,[2]; 342.63 K,0.000533 ± 2.7e-05 kPa and 0.000524 ± 2.6e-05 kPa
same,vapor or sublimation pressure,[2]; 345.16 K,0.000665 ± 3.3e-05 kPa and 0.000698 ± 3.5e-05 kPa and 0.000678 ± 3.4e-05 kPa
same,vapor or sublimation pressure,[2]; 347.68 K,0.000908 ± 4.5e-05 kPa and 0.000897 ± 4.5e-05 kPa and 0.000878 ± 4.4e-05 kPa
same,Normal melting temperature,[2],148.5 ± 0.56 °C
O=C(O)c1cccc(Cl)c1 [3-chlorobenzoic acid],Molar enthalpy of transition or fusion,[1],5.66 ± 0.134 kcal/mol
same,vapor or sublimation pressure,[2]; 320.13 K,0.000109 ± 5e-06 kPa and 0.000106 ± 5e-06 kPa and 0.000104 ± 5e-06 kPa
same,vapor or sublimation pressure,[2]; 321.18 K,0.000122 ± 6e-06 kPa and 0.00012 ± 6e-06 kPa and 0.000117 ± 6e-06 kPa
same,vapor or sublimation pressure,[2]; 324.17 K,0.000173 ± 9e-06 kPa and 0.000171 ± 9e-06 kPa and 0.00017 ± 9e-06 kPa
same,vapor or sublimation pressure,[2]; 327.14 K,0.000241 ± 1.2e-05 kPa and 0.000236 ± 1.2e-05 kPa and 0.000245 ± 1.2e-05 kPa
same,vapor or sublimation pressure,[2]; 330.15 K,0.000335 ± 1.7e-05 kPa and 0.000327 ± 1.6e-05 kPa and 0.000324 ± 1.6e-05 kPa
same,vapor or sublimation pressure,[2]; 333.17 K,0.000474 ± 2.4e-05 kPa and 0.000472 ± 2.4e-05 kPa and 0.00047 ± 2.4e-05 kPa
same,vapor or sublimation pressure,[2]; 336.13 K,0.000655 ± 3.3e-05 kPa and 0.000644 ± 3.2e-05 kPa
same,vapor or sublimation pressure,[2]; 339.01 K,0.000896 ± 4.5e-05 kPa and 0.000873 ± 4.4e-05 kPa and 0.000877 ± 4.4e-05 kPa
same,vapor or sublimation pressure,[2]; 340.13 K,0.001012 ± 0.0001 kPa and 0.000984 ± 4.9e-05 kPa and 0.00099 ± 5e-05 kPa
same,Normal melting temperature,[2],154.72 ± 0.55 °C
O=C(O)c1cccc(Br)c1 [3-bromobenzoic acid],Molar enthalpy of transition or fusion,[1],5.95 ± 0.134 kcal/mol
same,vapor or sublimation pressure,[2]; 327.67 K,0.000111 ± 6e-06 kPa and 0.000113 ± 6e-06 kPa
same,vapor or sublimation pressure,[2]; 330.66 K,0.00016 ± 8e-06 kPa and 0.000152 ± 8e-06 kPa
same,vapor or sublimation pressure,[2]; 332.64 K,0.0002 ± 1e-05 kPa and 0.000196 ± 1e-05 kPa
same,vapor or sublimation pressure,[2]; 335.16 K,0.00025 ± 1.3e-05 kPa and 0.000253 ± 1.3e-05 kPa and 0.000261 ± 1.3e-05 kPa
same,vapor or sublimation pressure,[2]; 337.71 K,0.000354 ± 1.8e-05 kPa and 0.000351 ± 1.8e-05 kPa and 0.00035 ± 1.8e-05 kPa
same,vapor or sublimation pressure,[2]; 340.14 K,0.000464 ± 2.3e-05 kPa and 0.000451 ± 2.3e-05 kPa and 0.00045 ± 2.3e-05 kPa
same,vapor or sublimation pressure,[2]; 342.65 K,0.000596 ± 3e-05 kPa and 0.00059 ± 3e-05 kPa and 0.000584 ± 2.9e-05 kPa
same,vapor or sublimation pressure,[2]; 345.15 K,0.000783 ± 3.9e-05 kPa and 0.00077 ± 3.9e-05 kPa and 0.000767 ± 3.8e-05 kPa
same,vapor or sublimation pressure,[2]; 347.6 K,0.000995 ± 5e-05 kPa and 0.001004 ± 0.0001 kPa and 0.000982 ± 4.9e-05 kPa
same,Normal melting temperature,[2],156.93 ± 0.45 °C
